Experimental data taken from patent US12544356B2, “Combination of a chromene compound and a second active agent” (EUCLISES PHARMACEUTICALS, INC., priority 2016, dated 2026).

How the values were obtained:
[1] = test system: HT-29 xenograft murine colon carcinoma model; assay: HT-29 xenograft tumor growth, Compound A01 with erlotinib (Example 1); format: in vivo, CB17SCID male mice
Method: HT-29 cells were cultured in medium for one week. Following digestion cells were centrifuged for 3-5 minutes at 800-1500 rpm. Cells were washed with PBS and centrifuged again under the same condition. Cells were then suspended in PBS to a final concentration of […]. 200 μL of the HT-29 cell suspension were subcutaneously injected into the mice left forelimb axillary (2.5×10^6 HT-29 cells per mouse).
(§1) 48 CB17SCID male mice were implanted with 2.5×10^6 HT29 cells. Growth of the tumor was calculated for each animal using a caliper and the equation: V=π×ab^2/6.
(§2) Mouse weight and tumor volume measurements were taken on days 0, 3, 6, 9, 12, 15, 18, 21, and 22 following randomization.

[2] = Body weight in HT-29 xenograft study (Example 1); format: in vivo, CB17SCID male mice
Method: as §1, §2

[3] = test system: CT26.WT murine colon carcinomas; assay: CT26 tumor volume, Compound A01 vs celecoxib (Example 6); format: in vivo, Female Harlan Balb/c mice (BALB/cAnNHsd)
Method: CT26 murine colon carcinoma cells were prepared as in Example 2. Female Harlan Balb/c mice (BALB/cAnNHsd) were inoculated with 5×10^5 CT26 cells suspended in PBS (200 μL) subcutaneously high in the axilla (just under the fore limb). All mice were sorted into study groups based on caliper measurement estimation of tumor burden on Day 8 when the mean tumor burden for all animals was approximately 79 mm^3 (range of group means, 75-83 mm^3).

[4] = test system: immune cell infiltration into the tumors (CT26); assay: Immune response to CT26 tumors: tumor-infiltrating and splenic immune cells (Example 3); format: in vivo, Female BALB/c mice; conditions: Day 16; compared to vehicle treated mice
Method: Female BALB/c mice were inoculated with 10^5 CT26 colorectal cancer cells as in Example 2. […] Anti-PD1 antibody was administered i.p. (200 μg/mouse) at days 9 and 14 post inoculation. Tumors were analyzed at day 16 (7 days after first anti-PD1 administration).

SMILES: [2H]C([2H])([2H])c1cc(Br)cc2c1O[C@H](C(F)(F)F)C(C(=O)O)=C2 [Compound A01, (S)-6-bromo-8-trideuteromethyl-2-(trifluoromethyl)-2H-chromene-3-carboxylic acid]
- suppression of tumor growth compared to vehicle ([1]; 10 mg/kg Compound A01 alone): 51%
- Tumor Volume ([1]; Day 0, A01 1 mg/kg oral daily): 71.8 mm^3
- Tumor Volume ([1]; Day 0, A01 10 mg/kg oral daily): 70.1 mm^3
- Tumor Volume ([1]; Day 3, A01 1 mg/kg oral daily): 143.8 mm^3
- Tumor Volume ([1]; Day 3, A01 10 mg/kg oral daily): 145.2 mm^3
- Tumor Volume ([1]; Day 6, A01 1 mg/kg oral daily): 194.2 mm^3
- Tumor Volume ([1]; Day 6, A01 10 mg/kg oral daily): 186.9 mm^3
- Tumor Volume ([1]; Day 9, A01 1 mg/kg oral daily): 301.1 mm^3
- Tumor Volume ([1]; Day 9, A01 10 mg/kg oral daily): 235.1 mm^3
- Tumor Volume ([1]; Day 12, A01 1 mg/kg oral daily): 344.8 mm^3
- Tumor Volume ([1]; Day 12, A01 10 mg/kg oral daily): 292.1 mm^3
- Tumor Volume ([1]; Day 15, A01 1 mg/kg oral daily): 459.4 mm^3
- Tumor Volume ([1]; Day 15, A01 10 mg/kg oral daily): 309.7 mm^3
- Tumor Volume ([1]; Day 18, A01 1 mg/kg oral daily): 820.6 mm^3
- Tumor Volume ([1]; Day 18, A01 10 mg/kg oral daily): 497.5 mm^3
- Tumor Volume ([1]; Day 21, A01 1 mg/kg oral daily): 899.0 mm^3
- Tumor Volume ([1]; Day 21, A01 10 mg/kg oral daily): 592.1 mm^3
- Tumor Volume ([1]; Day 22, A01 1 mg/kg oral daily): 921.1 mm^3
- Tumor Volume ([1]; Day 22, A01 10 mg/kg oral daily): 612.1 mm^3
- slowing of tumor growth, comparison of therapies ([1]; HT-29 xenograft, compared to vehicle and to each therapy alone): superior to 50 mg/kg erlotinib
- Body weight ([2]; Day 0, A01 1 mg/kg oral daily): 23.4 g
- Body weight ([2]; Day 0, A01 10 mg/kg oral daily): 23.5 g
- Body weight ([2]; Day 3, A01 1 mg/kg oral daily): 22.4 g
- Body weight ([2]; Day 6, A01 1 mg/kg oral daily): 21.6 g
- Body weight ([2]; Day 6, A01 10 mg/kg oral daily): 22.0 g
- Body weight ([2]; Day 15, A01 1 mg/kg oral daily): 20.0 g
- Body weight ([2]; Day 18, A01 1 mg/kg oral daily): 19.9 g
- Body weight ([2]; Day 21, A01 1 mg/kg oral daily): 19.9 g
- Body weight ([2]; Day 22, A01 1 mg/kg oral daily): 20.0 g
- CT26 Tumor Volume ([3]; Day 8, 0.3 mg/kg): 80 ± 6 mm^3
- CT26 Tumor Volume ([3]; Day 8, 1 mg/kg): 78 ± 5 mm^3
- CT26 Tumor Volume ([3]; Day 8, 3 mg/kg): 83 ± 3 mm^3
- CT26 Tumor Volume ([3]; Day 8, 10 mg/kg): 79 ± 6 mm^3
- CT26 Tumor Volume ([3]; Day 8, 30 mg/kg): 78 ± 5 mm^3
- CT26 Tumor Volume ([3]; Day 10, 0.3 mg/kg): 139 ± 15 mm^3
- CT26 Tumor Volume ([3]; Day 10, 1 mg/kg): 118 ± 17 mm^3
- CT26 Tumor Volume ([3]; Day 10, 3 mg/kg): 127 ± 11 mm^3
- CT26 Tumor Volume ([3]; Day 10, 10 mg/kg): 121 ± 14 mm^3
- CT26 Tumor Volume ([3]; Day 10, 30 mg/kg): 119 ± 8 mm^3
- CT26 Tumor Volume ([3]; Day 13, 0.3 mg/kg): 460 ± 73 mm^3
- CT26 Tumor Volume ([3]; Day 13, 1 mg/kg): 286 ± 48 mm^3
- CT26 Tumor Volume ([3]; Day 13, 3 mg/kg): 314 ± 49 mm^3
- CT26 Tumor Volume ([3]; Day 13, 10 mg/kg): 257 ± 35 mm^3
- CT26 Tumor Volume ([3]; Day 13, 30 mg/kg): 309 ± 34 mm^3
- CT26 Tumor Volume ([3]; Day 15, 0.3 mg/kg): 694 ± 116 mm^3
- CT26 Tumor Volume ([3]; Day 15, 1 mg/kg): 433 ± 67 mm^3
- CT26 Tumor Volume ([3]; Day 15, 3 mg/kg): 560 ± 79 mm^3
- CT26 Tumor Volume ([3]; Day 15, 10 mg/kg): 590 ± 109 mm^3
- CT26 Tumor Volume ([3]; Day 15, 30 mg/kg): 563 ± 89 mm^3
- CT26 Tumor Volume ([3]; Day 17, 0.3 mg/kg): 1123 ± 198 mm^3
- CT26 Tumor Volume ([3]; Day 17, 1 mg/kg): 689 ± 114 mm^3
- CT26 Tumor Volume ([3]; Day 17, 3 mg/kg): 834 ± 114 mm^3
- CT26 Tumor Volume ([3]; Day 17, 10 mg/kg): 758 ± 130 mm^3
- CT26 Tumor Volume ([3]; Day 17, 30 mg/kg): 897 ± 101 mm^3
- CD45+ (leukocyte), CD3+, CD8+, CD8+IFNγ+, CD4+IFNγ+, CD8+TNFα+ and CD4+TNFα+ cell infiltration into the tumors [4]: increase
